From ChEMBL document CHEMBL5236572, “Bioactive Aurones, Indanones, and Other Hemiindigoid Scaffolds: Medicinal Chemistry and Photopharmacology Perspectives” (J Med Chem, 2022) come the findings set out here.

In test [1] the target is Retinoic acid receptor alpha (Homo sapiens, UniProt P10276). The experiment in a line: Antagonist activity at Gal4-RARalpha transfected in HEK293 cells assessed as atRA-induced RARalpha transactivation and measured after 6 hrs by Dual-Light chemiluminiscence assay. Type of test: cell-based.
Test [2] relates to U-251. The experiment in a line: Antiproliferative activity against doxorubicin resistant human U-251 cells assessed as inhibition of cell viability incubated for 48 hrs by sulforhodamine B assay. The note with it: U-251, 48 h. Type of test: functional, cell-based. (In general: The SRB assay estimates cell density from bound dye.)
Test [3] has as its target T1, Amine oxidase [flavin-containing] B (Homo sapiens, UniProt P27338).
T1 sequence (P27338 whole entry): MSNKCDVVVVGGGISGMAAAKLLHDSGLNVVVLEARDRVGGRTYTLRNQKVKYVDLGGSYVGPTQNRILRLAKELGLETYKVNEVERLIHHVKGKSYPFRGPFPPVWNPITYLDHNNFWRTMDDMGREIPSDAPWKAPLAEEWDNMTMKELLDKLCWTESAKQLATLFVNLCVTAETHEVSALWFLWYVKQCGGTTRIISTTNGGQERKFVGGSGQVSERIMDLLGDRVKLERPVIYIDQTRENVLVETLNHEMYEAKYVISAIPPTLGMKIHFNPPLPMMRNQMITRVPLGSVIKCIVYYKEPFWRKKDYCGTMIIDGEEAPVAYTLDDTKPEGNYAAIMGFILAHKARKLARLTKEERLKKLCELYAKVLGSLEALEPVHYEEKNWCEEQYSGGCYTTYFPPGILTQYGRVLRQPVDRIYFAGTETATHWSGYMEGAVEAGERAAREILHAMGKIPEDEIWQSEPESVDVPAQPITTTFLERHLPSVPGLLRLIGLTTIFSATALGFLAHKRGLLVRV
The experiment in a line: Inhibition of recombinant human MAO-B.

Test [4] has as its target T2, Amyloid-beta precursor protein (Homo sapiens, UniProt P05067). The test is described as follows: Inhibition of amyloid beta (1 to 42) (unknown origin) self aggregation by ThT-based fluorometric assay.
Test [5] deals with T2, Amyloid-beta precursor protein. The test is described as follows: Inhibition of self-induced amyloid beta (1 to 42) (unknown origin) disaggregation by ThT-based fluorometric assay.
Test [6] is described as follows: Inhibition of equine serum BuChE using butyrylthiocholine iodide as substrate preincubated for 15 mins followed by substrate addition and measured after 2 mins by DTNB reagent based Ellman's method. On the technique in general: DTNB colorimetry detects thiols as they appear.
Test [7] relates to Pseudomonas aeruginosa. The experiment in a line: Antimicrobial activity against Pseudomonas aeruginosa assessed as bacterial growth inhibition. It counts as functional.
In test [8] the test system is Staphylococcus aureus. The experiment in a line: Antimicrobial activity against Staphylococcus aureus assessed as bacterial growth inhibition. Type of test: functional.
For test [9], the system named is Aspergillus niger. The experiment in a line: Antifungal activity against Aspergillus niger assessed as reduction in fungal growth. It counts as functional.
Test [10] concerns Aspergillus flavus. The experiment in a line: Antifungal activity against Aspergillus flavus assessed as reduction in fungal growth. Type of test: functional.
Test [11] concerns SH-SY5Y. The test is described as follows: Cytotoxicity against human SH-SY5Y cells assessed as reduction in cell viability. Type of test: functional, cell-based.
For test [12], the system named is NB-4. The test is described as follows: Cytotoxicity against human NB-4 cells assessed as reduction in cell viability. Type of test: functional, cell-based.
In test [13] the test system is Bacillus subtilis. The experiment in a line: Antimicrobial activity against Bacillus subtilis MTCC 121 assessed as bacterial growth inhibition incubated for 24 hrs by well diffusion method. It counts as functional. On the technique in general: Agar diffusion results depend on both activity and mobility in agar.
The subject of test [14] is Staphylococcus aureus. The test is described as follows: Antimicrobial activity against Staphylococcus aureus MTCC96 assessed as bacterial growth inhibition incubated for 24 hrs by well diffusion method. It counts as functional.
Test [15] relates to Escherichia coli. The experiment in a line: Antimicrobial activity against Escherichia coli MTCC43 assessed as bacterial growth inhibition incubated for 24 hrs by well diffusion method. Type of test: functional.
Test [16] deals with Proteus vulgaris. The experiment in a line: Antimicrobial activity against Proteus vulgaris assessed as bacterial growth inhibition incubated for 24 hrs by well diffusion method. It counts as functional.
Test [17] concerns Aspergillus flavus. The experiment in a line: Antifungal activity against Aspergillus flavus NRRL-3357 assessed as reduction in fungal growth by well diffusion method. Type of test: functional.
The subject of test [18] is Candida albicans. The test is described as follows: Antifungal activity against Candida albicans assessed as reduction in fungal growth by well diffusion method. It counts as functional.
Test [19] has as its system PC-3. The experiment in a line: Antiproliferative activity against doxorubicin resistant human PC-3 cells assessed as inhibition of cell proliferation by Beckman Coulter analysis. Type of test: functional, cell-based.
Test [20] has as its system Pseudomonas aeruginosa. The experiment in a line: Antimicrobial activity against Pseudomonas aeruginosa MTCC 1688 assessed as bacterial growth inhibition by broth microdilution method. Type of test: functional.
The target in test [21] is Casein kinase 2 (Homo sapiens, UniProt P67870+P68400+P19784+Q8NEV1). The experiment in a line: Inhibition of recombinant human CK2 using RRRDDDSDDD as substrate in presence of [gamma-33P-ATP] incubated for 20 mins by beta-counter analysis. It counts as protein assay.
Test [22] concerns the target Acetylcholinesterase (Electrophorus electricus, UniProt O42275). The test is described as follows: Inhibition of electric eel AChE using acetylthiocholine iodide as substrate preincubated for 5 mins followed by substrate addition by spectrophotometric Ellman's method.
Test [23] can be described thus: Inhibition of equine serum BuChE using butyrylthiocholine iodide as substrate preincubated for 5 mins followed by substrate addition by spectrophotometric Ellman's method.
Test [24] is described as follows: Selectivity index, ratio of IC50 for inhibition of electric eel AChE to IC50 for inhibition of equine serum BuChE.

≈ marks a conversion by molar mass, not a printed value.

T2 sequence (P05067 whole entry): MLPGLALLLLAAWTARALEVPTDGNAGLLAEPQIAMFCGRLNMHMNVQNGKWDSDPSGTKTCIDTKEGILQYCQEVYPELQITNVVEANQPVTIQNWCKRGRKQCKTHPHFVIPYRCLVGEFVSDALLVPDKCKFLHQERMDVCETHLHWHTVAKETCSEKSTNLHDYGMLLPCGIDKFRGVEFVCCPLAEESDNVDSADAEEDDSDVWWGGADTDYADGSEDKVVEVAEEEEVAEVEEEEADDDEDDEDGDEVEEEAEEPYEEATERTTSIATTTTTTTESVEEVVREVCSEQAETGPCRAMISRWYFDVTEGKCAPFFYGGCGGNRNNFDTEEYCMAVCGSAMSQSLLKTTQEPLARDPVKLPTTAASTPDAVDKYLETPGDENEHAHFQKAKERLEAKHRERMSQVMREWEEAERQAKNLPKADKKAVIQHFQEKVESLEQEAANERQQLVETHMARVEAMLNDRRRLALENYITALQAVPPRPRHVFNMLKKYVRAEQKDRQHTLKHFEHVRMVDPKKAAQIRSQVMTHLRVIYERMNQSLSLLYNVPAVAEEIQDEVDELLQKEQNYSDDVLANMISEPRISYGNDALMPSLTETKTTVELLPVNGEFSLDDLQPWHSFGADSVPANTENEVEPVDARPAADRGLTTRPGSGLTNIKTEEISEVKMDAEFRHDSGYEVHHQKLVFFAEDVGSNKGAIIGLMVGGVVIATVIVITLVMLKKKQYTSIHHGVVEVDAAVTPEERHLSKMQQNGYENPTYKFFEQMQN
Chain of Acetylcholinesterase (O42275 whole entry): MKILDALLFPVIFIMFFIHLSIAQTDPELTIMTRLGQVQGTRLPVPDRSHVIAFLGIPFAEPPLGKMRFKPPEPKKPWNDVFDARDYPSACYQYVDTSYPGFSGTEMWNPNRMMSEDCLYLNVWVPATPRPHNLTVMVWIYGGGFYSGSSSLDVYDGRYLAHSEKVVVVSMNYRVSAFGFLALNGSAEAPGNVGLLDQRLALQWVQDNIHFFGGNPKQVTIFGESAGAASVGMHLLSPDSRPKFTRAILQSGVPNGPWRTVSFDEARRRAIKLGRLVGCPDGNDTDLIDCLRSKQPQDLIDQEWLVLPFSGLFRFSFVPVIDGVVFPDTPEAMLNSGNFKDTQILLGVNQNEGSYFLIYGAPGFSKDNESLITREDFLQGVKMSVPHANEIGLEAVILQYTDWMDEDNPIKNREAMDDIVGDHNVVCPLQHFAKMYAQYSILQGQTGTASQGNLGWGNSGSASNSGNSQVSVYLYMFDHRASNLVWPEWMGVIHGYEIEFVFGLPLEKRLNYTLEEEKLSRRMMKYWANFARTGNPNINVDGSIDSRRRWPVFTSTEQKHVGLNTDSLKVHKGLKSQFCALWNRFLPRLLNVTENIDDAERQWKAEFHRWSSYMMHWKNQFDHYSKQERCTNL
Chain of Retinoic acid receptor alpha (P10276 whole entry, the tested form may be a part): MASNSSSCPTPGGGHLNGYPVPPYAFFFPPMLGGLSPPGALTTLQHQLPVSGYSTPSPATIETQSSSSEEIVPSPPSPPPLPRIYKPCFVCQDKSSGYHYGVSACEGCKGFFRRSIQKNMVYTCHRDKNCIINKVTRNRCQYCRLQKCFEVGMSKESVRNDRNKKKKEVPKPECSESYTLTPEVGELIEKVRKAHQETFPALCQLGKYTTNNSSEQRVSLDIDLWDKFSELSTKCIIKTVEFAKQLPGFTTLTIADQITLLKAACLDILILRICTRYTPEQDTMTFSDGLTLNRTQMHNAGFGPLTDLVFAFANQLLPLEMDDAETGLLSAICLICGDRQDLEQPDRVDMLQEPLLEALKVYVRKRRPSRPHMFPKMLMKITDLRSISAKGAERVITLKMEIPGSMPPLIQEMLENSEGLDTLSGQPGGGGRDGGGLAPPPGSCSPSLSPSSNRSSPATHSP

For the compound `COCCOCOc1cc2c(cc1C13CC4CC(CC(C4)C1)C3)C(=O)/C(=C/c1ccc(C(=O)O)cc1)O2`, in [1], the IC50 came to 4420 nM.

For the compound `O=C1/C(=C(\O)c2ccc3ccccc3c2)Cc2ccccc21`, the IC50 in test [2] amounted to 2500 nM.

Regarding `COc1cc2c(cc1OC)C(=O)/C(=C/c1ccc([N+](=O)[O-])cc1)C2`, the IC50 in [3] was 30 nM; in test [4], 1800 nM; in [5] it was 7900 nM.

For `COc1cc2c(cc1OC)C(=O)/C(=C/c1cc[n+](Cc3ccccc3F)cc1)O2`, the IC50 in [6] is 1620 nM.

As for `Cc1ccc2c(c1)C(=O)/C(=C/c1coc3ccc(C)cc3c1=O)O2`, the minimal inhibitory concentration (MIC) turned out to be 1.6 µM (≈ 0.509 µg/mL) in test [7], 1.6 µM (≈ 0.509 µg/mL) in test [8], 14 µM (≈ 4.46 µg/mL) in [9] and 14 µM (≈ 4.46 µg/mL) in [10].

On to `COc1ccc(/C=C2\Oc3c(ccc4c3C(=O)CC(C)(C)O4)C2=O)cc1`, for which the figures for the IC50 in [11] and in test [12] were 3400 nM and 4800 nM, respectively.

Consider `O=C1/C(=C/c2ccc(Br)cc2)Oc2c1ccc1c2C=CCO1`, for which the MIC in [13] is 4.4 µM (≈ 1.56 µg/mL); in [14], 4.4 µM (≈ 1.56 µg/mL); in test [15] it was 4.4 µM (≈ 1.56 µg/mL); in test [16] it was 4.4 µM (≈ 1.56 µg/mL); in test [17], 18 µM (≈ 6.39 µg/mL); in test [18], 18 µM (≈ 6.39 µg/mL).

`COc1ccc(/C=C2\Oc3c(ccc(OC(C)=O)c3COC(C)=O)C2=O)cc1OC`: the IC50 in test [19] was found to be 740 nM.

`C=CCn1c(=O)c(/C=C2\Oc3cc(O)cc(O)c3C2=O)cc2cc(C)ccc21`: the MIC in test [20] was found to be 33 µM (≈ 12.4 µg/mL).

With `O=C1/C(=C/c2ccc(O)c(Br)c2)Oc2c(Br)cccc21`, the IC50 in test [21] worked out at 3.3 nM.

As for `COc1ccc(NC(=O)Oc2cccc(/C=C3\Cc4cc(OC)c(OC)cc4C3=O)c2)cc1`, the IC50 in test [22] came to 21000 nM; in test [23], 310 nM. In addition, the Ratio IC50 in test [24] is 70.

In general, IC50 refers to the concentration that gives 50% inhibition. A word on the MIC: it is the smallest concentration in the dilution series that meets the test's criterion for growth inhibition.
